# From patent publication US20130323165A1, “Magnetic Nanoplatforms for Theranostic and Multi-Modal Imaging Applications” (NORTHEASTERN UNIVERSITY, priority 2010, published 2013)
# Counter-ions that a name gives are not always drawn.
# Assays:
# [1] = Drug loading into MAG-C cationic liposomes by HPLC; type: physicochemical; settings: 3 mol % drug
# Procedure: The influence of MAG-C on the efficiency of loading chemotherapeutic agents (hydrophilic and lipophilic) in cationic liposomes was evaluated by HPLC. […] The inclusion of PEG in MAG-C cationic liposomes improved incorporation of vinblastine sulfate from […]. We also evaluated the effect of MAG-C on the incorporation efficiency of the hydrophilic drug, dacarbazine at 3 mol %.
# B16-F10 melanoma tumor = settings: 1.35 mg/kg
# [2] = tested on: B16-F10 melanoma metastasis; test: Tumor metastases (melanin pigmentation, pleural cavity)
# [3] = cationic liposomes without MAG-C
incorporation (loading) efficiency ([1]; MAG-C cationic liposomes with PEG included) [%],"incorporation (loading) efficiency [1, 3] [%]",incorporation (loading) efficiency ([1]; cationic liposomes with 2.5 mg/ml MAG-C (SPION)),SMILES,incorporation (loading) efficiency ([1]; cationic liposomes with 0.5 mg/ml MAG-C (SPION)),tumor volumes compared to the untreated control group (B16-F10 melanoma tumor),number of tumor nodules in the livers ([2]; compared to the saline control),mice with evidence of metastasis within the pleural cavity ([2]; free drug)
7873.73,7876.03,–,COc1cc([C@@H]2c3cc4c(cc3[C@@H](O[C@@H]3O[C@@H]5CO[C@@H](C)O[C@H]5[C@H](O)[C@H]3O)[C@H]3COC(=O)[C@H]23)OCO4)cc(OC)c1O [etoposide],did not alter the incorporation efficiency,–,–,–
–,3273.6,no further decrease was observed,CC[C@]1(O)C[C@@H]2CN(CCc3c([nH]c4ccccc34)[C@@](C(=O)OC)(c3cc4c(cc3OC)N(C)[C@H]3[C@@](O)(C(=O)OC)[C@H](OC(C)=O)[C@]5(CC)C=CCN6CC[C@]43[C@@H]65)C2)C1 [vinblastine sulfate],–,no significant difference in the tumor volumes,less,5/5
